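48-hour exposure; five concentrations; linearly interpolated endpoints. The concentration for 50% growth inhibition is given as GI50. Definition used: TGI = concentration required for complete inhibition of growth.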
Assays:
Experiment in all cases: DTP human tumour cell line panel, 48 h
[1] = system: 786-0 renal
[2] = system: A498 renal
[3] = system: A549 NSCLC
[4] = system: ACHN renal
[5] = system: BT-549 breast
[6] = system: CAKI-1 renal
[7] = system: CCRF-CEM leukemia
[8] = system: COLO 205 colon
[9] = system: DU-145 prostate
[10] = system: EKVX NSCLC
[11] = system: HCC-2998 colon
[12] = system: HCT-116 colon
[13] = system: HCT-15 colon
[14] = system: HL-60(TB) leukemia
[15] = system: HOP-62 NSCLC
[16] = system: HOP-92 NSCLC
[17] = system: HS 578T breast
[18] = system: HT29 colon
[19] = system: IGROV1 ovarian
[20] = system: K-562 leukemia
[21] = system: KM12 colon
[22] = system: LOX IMVI melanoma
[23] = system: M14 melanoma
[24] = system: MALME-3M melanoma
[25] = system: MCF7 breast
[26] = system: MDA-MB-231 breast
[27] = system: MDA-MB-435
[28] = system: MOLT-4 leukemia
[29] = system: NCI-H226 lung
[30] = system: NCI-H23 lung
[31] = system: NCI-H460 lung
[32] = system: NCI-H522 lung
[33] = system: NCI/ADR-RES ovarian
[34] = system: OVCAR-4 ovarian
[35] = system: OVCAR-5 ovarian
[36] = system: OVCAR-8 ovarian
[37] = system: PC-3 prostate
[38] = system: RPMI-8226 leukemia
[39] = system: RXF 393 renal
[40] = system: SF-268 CNS
[41] = system: SF-295 CNS
[42] = system: SF-539 CNS
[43] = system: SK-MEL-2 melanoma
[44] = system: SK-MEL-28 melanoma
[45] = system: SK-MEL-5 melanoma
[46] = system: SK-OV-3 ovarian
[47] = system: SN12C renal
[48] = system: SNB-19 CNS
[49] = system: SNB-75 CNS
[50] = system: SR leukemia
[51] = system: SW-620 colon
[52] = system: T-47D breast
[53] = system: TK-10 renal
[54] = system: U251 CNS
[55] = system: UACC-257 melanoma
[56] = system: UACC-62 melanoma
[57] = system: UO-31 renal

## Nn1c(=O)n(-c2cccc(C(F)(F)F)c2)c(=O)c2cc(-c3ccc(F)cc3F)ccc21
[1]
  GI50: 2.14 µM
  TGI: 5.26 µM
[2]
  GI50: 0.327 µM
  TGI: 1.3 µM
[3]
  GI50: 2.71 µM
  TGI: 12.5 µM
[4]
  GI50: 2.4 µM
  TGI: 10.3 µM
[5]
  GI50: 0.667 µM
  TGI: 2.14 µM
[6]
  GI50: 1.5 µM
  TGI: 5.14 µM
[7]
  GI50: 1.14 µM
  TGI: 6.85 µM
[8]
  GI50: 1.94 µM
  TGI: 3.67 µM
[9]
  GI50: 3.06 µM
  TGI: 17.7 µM
[10]
  GI50: 2.48 µM
  TGI: 8.79 µM
[11]
  GI50: 2.77 µM
  TGI: 9.96 µM
[12]
  GI50: 0.841 µM
  TGI: 2.29 µM
[13]
  GI50: 0.649 µM
  TGI: 2.69 µM
[14]
  GI50: 1.75 µM
  TGI: 8.76 µM
[15]
  GI50: 1.9 µM
  TGI: 4.6 µM
[16]
  GI50: 0.137 µM
  TGI: 0.523 µM
[17]
  GI50: 1.19 µM
  TGI: 5.43 µM
[18]
  GI50: 3.49 µM
  TGI: 13.9 µM
[19]
  GI50: 1.83 µM
  TGI: 27.7 µM
[20]
  GI50: 0.949 µM
  TGI: 14.8 µM
[21]
  GI50: 2.44 µM
  TGI: 6.6 µM
[22]
  GI50: 1.49 µM
  TGI: 3.13 µM
[23]
  GI50: 1.54 µM
  TGI: 4.33 µM
[24]
  GI50: 1.54 µM
  TGI: 5.3 µM
[25]
  GI50: 1.61 µM
  TGI: 7.08 µM
[26]
  GI50: 1.9 µM
  TGI: 6.13 µM
[27]
  GI50: 1.66 µM
  TGI: 6.45 µM
[28]
  GI50: 2.05 µM
  TGI: 6.12 µM
[29]
  GI50: 1.53 µM
  TGI: 4.84 µM
[30]
  GI50: 1.08 µM
  TGI: 4.2 µM
[31]
  GI50: 0.776 µM
  TGI: 8.03 µM
[32]
  GI50: 0.39 µM
  TGI: 2.55 µM
[33]
  GI50: 1.84 µM
  TGI: 9.17 µM
[34]
  GI50: 2.55 µM
  TGI: > 100 µM
[35]
  GI50: 3.51 µM
  TGI: 19 µM
[36]
  GI50: 1.22 µM
  TGI: 6.52 µM
[37]
  GI50: 0.653 µM
  TGI: 4.14 µM
[38]
  GI50: 0.319 µM
  TGI: 1.52 µM
[39]
  GI50: 1.12 µM
  TGI: 3.11 µM
[40]
  GI50: 1.91 µM
  TGI: 10.9 µM
[41]
  GI50: 1.76 µM
  TGI: 3.76 µM
[42]
  GI50: 1.73 µM
  TGI: 8.23 µM
[43]
  GI50: 0.449 µM
  TGI: 2.07 µM
[44]
  GI50: 1.45 µM
  TGI: 6.65 µM
[45]
  GI50: 0.338 µM
  TGI: 1.24 µM
[46]
  GI50: 1.29 µM
  TGI: 3.39 µM
[47]
  GI50: 0.991 µM
  TGI: 5.36 µM
[48]
  GI50: 1.07 µM
  TGI: 13.3 µM
[49]
  GI50: 1.67 µM
  TGI: 6.37 µM
[50]
  GI50: 1.21 µM
  TGI: 5.94 µM
[51]
  GI50: 1.62 µM
  TGI: 4.41 µM
[52]
  GI50: 1.69 µM
  TGI: 7.02 µM
[53]
  GI50: 4.07 µM
  TGI: 8.74 µM
[54]
  GI50: 1.51 µM
  TGI: 9.92 µM
[55]
  GI50: 1.05 µM
  TGI: 3.97 µM
[56]
  GI50: 0.296 µM
  TGI: 1.14 µM
[57]
  GI50: 2.27 µM
  TGI: 8.8 µM
